Assay results as given in patent US20110287953A1, “METHOD FOR DISCOVERING POTENTIAL DRUGS” (priority 2010, published 2011).

How the values were obtained:
[1] = tested on: hepatocellular carcinoma or HCC; conditions: Table 2-3; labels (2) and (3), PubMed references; cited from earlier work
[2] = tested on: HCC cell lines, Mahlavu, PLC5, HepG2, and Huh7; assay: MTT cell viability test in HCC cell lines
Procedure: (§1) The HCC cell lines, Mahlavu, PLC5, HepG2, and Huh7, were cultured in Dulbecco's Modified Eagle Medium (DMEM; Seromed, Berlin, Germany) supplemented with 10% heat-inactivated fetal bovine serum, 100 μg/ml streptomycin, 100 μg/ml penicillin, and 2 mM L-glutamine in a humidified atmosphere containing 5% CO2 at 37° C. […] The cells were exposed to different concentrations of the small molecules for 72 hours. Control cells were incubated in the absence of small molecules. Afterwards, the cells were incubated with medium containing MTT for 2 hours. […] For the clonogenic assay, Huh7 cells were seeded out in appropriate dilutions in a 6-well plate and treated with selected small molecules at various concentrations for 15 days. Colonies were fixed with glutaraldehyde (6.0% v/v), stained with crystal violet (0.5% w/v), and counted.

[3] = tested on: Huh7 cells; assay: Clonogenic assay; type: cell-based; conditions: for inhibition at 10 µM: Homo sapiens, Huh-7, 360 h; for inhibition at 10 µM / Clonogenic assay: colony number at 10 μM
Procedure: The HCC cell lines, Mahlavu, PLC5, HepG2, and Huh7, were cultured in Dulbecco's Modified Eagle Medium (DMEM; Seromed, Berlin, Germany) supplemented with 10% heat-inactivated fetal bovine serum, 100 μg/ml streptomycin, 100 μg/ml penicillin, and 2 mM L-glutamine in a humidified atmosphere containing 5% CO2 at 37° C. The viability of the exposed cells was determined using the MTT cell viability assay kit (Sigma-Aldrich, St. Louis, USA), according to the manufacturer's instructions. […] The cells were exposed to different concentrations of the small molecules for 72 hours. Control cells were incubated in the absence of small molecules. Afterwards, the cells were incubated with medium containing MTT for 2 hours. The optical density at 450 nm was measured using a microplate reader (Spectral Max250). For the clonogenic assay, Huh7 cells were seeded out in appropriate dilutions in a 6-well plate and treated with selected small molecules at various concentrations for 15 days. Colonies were fixed with glutaraldehyde (6.0% v/v), stained with crystal violet (0.5% w/v), and counted.

[4] = tested on: HCC cell lines; assay: Drug efficacy label of top 10 CMap drugs (MTT or clonogenic); type: cell-based; conditions: Table 2-3; labels (1) and (4); gene set in which the drug ranked top 10;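 also: label 1 means effective by MTT or clonogenic assay and 4 means ineffective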
Procedure: as §1

[5] = tested on: Huh-7 cells; conditions: proliferation of Huh-7 cells, other reports; cited from earlier work
[6] = tested on: NPC cell lines, TW01, TW03, TW04, BM1
Procedure: NPC cell lines, TW01, TW03, and TW04 provided by Dr. C T Lin (National Taiwan University, Taiwan), were derived from primary nasopharyngeal tumors of Chinese patients with de novo NPC and had been tested and authenticated (27). NPC cell line BM1, provided by Dr. S K Liao (Chang Gung University, Taiwan), was derived from bone metastatic lesions of an NPC patient (28). NPC cell lines were maintained in DMEM with 10% FBS containing penicillin (100 U/mL) and streptomycin (100 μg/mL) in 5% CO2 at 37° C. Cell viability was determined using the XTT cell viability assay kit (Sigma-Aldrich, St. Louis, USA), according to the manufacturer's instructions. […] Cells were exposed with or without small molecules for 72 hours at different concentrations. Then, the cells were incubated with medium containing XTT in an amount equal to 20% of the culture medium volume for 2 hours. Optical density was measured using a microplate reader (Spectral Max250) at 450 nm.

[7] = tested on: B16 melanoma cells; conditions: cited from earlier work
[8] = tested on: leukemic cells; conditions: cited from earlier work
[9] = 72 h, Table 3-1, HCC cell lines, MTT
[10] = 72 h, Table 2-2, HCC cell lines, MTT
[11] = Table 3-1, HCC cell lines, 72 hours, MTT

| SMILES | drug efficacy label [1] | IC50 [2, 9] | inhibition at 10 µM ([3]; Table 3-1, 15 days) | Clonogenic assay ([3]; Table 2-2, 15 days) | drug efficacy label [4] | other results |
| --- | --- | --- | --- | --- | --- | --- |
| Nc1ccccc1NC(=O)c1ccc(CNC(=O)OCc2cccnc2)cc1 [MS-275] | MS-275 (2) |  |  |  |  |  |
| CC(C(O)c1ccc(O)cc1)N1CCC(Cc2ccccc2)CC1 (stereo not drawn) [ifenprodil] | ifenprodil (3) | > 10 µM |  |  |  |  |
| O=c1cc(-c2ccc(O)c(O)c2)oc2cc(O)cc(O)c12 [luteolin] |  | > 10 µM | > 50% | Ineffective | luteolin (4) | IC50 [2, 10]: > 10 µM; IC50 [5]: ~50 µM |
| CC[C@@H](CO)NC(=O)[C@@H]1C=C2c3cccc4[nH]cc(c34)C[C@H]2N(C)C1 [methylergometrine] |  |  |  |  | methylergometrine (4) | IC50 ([2]; 72 h): > 10 µM; Clonogenic assay ([3]; Table 3-1, 15 days): Ineffective |
| CC(COc1ccccc1)N(CCCl)Cc1ccccc1 (stereo not drawn) [phenoxybenzamine] |  |  | > 50% | Effective (Effectiveness in clonogenic assay is defined as reducing more than 50% colony number at 10 μM) | (1) and phenoxybenzamine (1) | IC50 ([2]; 72 h): > 10 µM; IC50 [2, 11]: > 10 µM; growth / survival of Huh7 cells [3]: could inhibit the survival of Huh7 cells |
| Cc1cc(/C=C/c2ccc3cc(N(C)C)ccc3[n+]2C)c(C)n1-c1ccccc1 [pyrvinium] | pyrvinium (3) | 0.1 to 1 µM |  |  |  |  |
| CC(/C=C/C(=O)NO)=C\[C@@H](C)C(=O)c1ccc(N(C)C)cc1 [trichostatin A] |  |  |  |  | trichostatin A (1) | IC50 ([2]; Table 2-2, HCC cell lines, 72 hours, MTT): 0.1 to 1 µM; IC50 [2, 11]: 0.1 to 1 µM; cytotoxicity in NPC cell lines [6]: Dose-dependent cytotoxicity |
| CN1CCN(CCCN2c3ccccc3Sc3ccc(C(F)(F)F)cc32)CC1 [trifluoperazine] |  | > 10 µM | > 50% | Effective (Effectiveness in clonogenic assay is defined as reducing more than 50% colony number at 10 μM) | trifluoperazine (1) | IC50 [2, 10]: > 10 µM; cytotoxicity in NPC cell lines [6]: Dose-dependent cytotoxicity; apoptosis [7]: can induce apoptosis; apoptosis [8]: can induce apoptosis |
| O=C(CCCCCCC(=O)Nc1ccccc1)NO [vorinostat] | vorinostat (2) |  |  |  |  |  |
